A short description of the data set: Compatibility study of drug at 40% w/w in solvent blends. It is filed as physicochemical. The following applies: two week samples at accelerated conditions versus initial samples.

The text below walks through data of patent US8119694B2, “High concentration local anesthetic formulations” (priority 2008, dated 2012).

Description: The solubility and compatibility of lidocaine and lidocaine HCl in solvents typically used in topical pharmaceutical products was assessed in order to direct the formulation development efforts.
Initially, the solubility of lidocaine and lidocaine hydrochloride was evaluated in single solvents with varying lipophilicity. […] Based on the single solvent data, a compatibility study was initiated to evaluate the chemical stability of the drug at a concentration of 40% w/w in a variety of solvent blends that would form the base of potential prototype gel or cream formulations.

Turning to `CCN(CC)CC(=O)Nc1c(C)cccc1C` [lidocaine], the “chemical compatibility (potency) in solvent blends” value was “absence of a drop in potency”.
